Read-outs that look alike come from different tables or passages of the source.
Key:
[1] = test system: BON‑1 xenografts; parameters: method as in PMID 27363833; settings: after treatment with DAC; cited from earlier work
[2] = test system: MTT tumors; settings: for increase of average SUVmean of tumors vs control cohort: MTT tumors, VPA 250 mg/kg, DAC 1 mg/kg, single or combination, i.p. twice at 72 h interval, DAC P < 0.05, combination P < 0.01; for SUVmean tumor / SUVmax ratio tumor / muscle / SUVmax tumor / SUVmean ratio tumor / muscle: MTT; for percentage of MTT responders (SUV): n = 7 per cohort, threshold control mean + 2×TE
Description: All animal experiments were carried out according to the guidelines of the German Regulations for Animal Welfare and have been approved by the local Ethical Committee for Animal Experiments. A number of 4×10^6 MPC or MTT cells were re-suspended in 40 µL of Dulbecco's phosphate-buffered saline and injected subcutaneously into the shoulder of 10-15 week-old female nude mice (Rj:NMRI-Foxn1^nu/nu, Janvier Labs, Le Genest-Saint-Isle, France). Prior to imaging procedures, general anesthesia was induced and maintained with inhalation of 10% (v/v) desflurane in 30/10% (v/v) oxygen/air. During anesthesia, animals were continuously warmed at 37°C. Tumor growth was monitored three times per week using caliper measurements. Tumor volume was calculated assuming a tri-axial ellipsoid with the axes a, b, and c using the formula V = π/6×abc. Animals were sacrificed using CO2 inhalation and cervical dislocation.
Preparation of epigenetic drugs is described in Supplemental Information 1.1. Animals received VPA (1.7×10^‒3 mol/kg ≈ 250 mg/kg), DAC ([…] ≈ 1 mg/kg), or a combination of both, in Dulbecco's phosphate buffered saline (200 µL/30 g body weight), delivered as two consecutive intraperitoneal injections in a 72 h-interval. Applied doses were within the epigenetically effective dose range in mice, as reported elsewhere, [41]-[43]. The estimated human equivalent doses corresponded to 20‒30% of the clinically applied tumor-suppressive doses in patients, [45]. Animals in control groups received Dulbecco's phosphate buffered saline only. Multiple independent experiments were performed, always including animals of all treatment groups (Table 1).
Small animal positron emission tomography (PET) was performed using the nanoPET/CT scanner (Mediso Medical Imaging Systems, Budapest, Hungary). […] Recording, binning, framing, and image reconstruction were performed as reported previously. Dynamic imaging was performed for 60 min, static imaging between 40‒60 min after radiotracer injection. With each PET scan, a corresponding CT image was recorded and used for anatomical referencing and attenuation correction. […] Standardized uptake values (SUV) were determined and reported as SUVmean (VOI-averaged) and SUVmax (VOI-maximum). Details on quantitative PET image analysis are provided in Supplemental Information 1.4.
106 (VOIs) were created (40‒60 min frames) applying fixed thresholds for delineation of tumor
107 (30%), muscle (0%), kidneys (25%), and liver (35%). […]

[3] = target: T1, SSTR2 (Mus musculus, UniProt P30875); test: Immunoblotting of SSTR2 in cells after epigenetic treatment; format: cell-based
T1 construct: endogenous in cells; host or cells: MPC and MTT mouse pheochromocytoma cells (cell homogenates), untreated or treated with VPA + DAC
Description: Cells were seeded into collagen-coated microplates or collagen-coated flasks 24 h before epigenetic treatment (ET) start and treated twice (24 h interval) with VPA and DAC, as single and combination doses, respectively. Treatment effects were investigated two to six days (d) after final ET. Preparation of epigenetic drugs is reported in Supplemental Information 1.1.
Cells seeded into collagen-coated flasks (2.5×10^4/cm^2) were harvested three days after treatment start by incubation with Dulbecco's phosphate-buffered saline containing 2 mmol/L EDTA at 4 °C. Cell pellets were frozen and stored at -70°C. Frozen tumor tissue obtained from allograft mice was cut into 4 × 4 mm pieces.
Protein extraction from cells and tissues, gel electrophoresis, and immunoblotting was performed as described previously with some modifications. In brief, tissue homogenization was performed using the gentleMACS™ dissociator (Miltenyi Biotech, Bergisch Gladbach, Germany). Immunodetection of proteins was performed using the recombinant primary antibodies anti-SSTR2 [UMB1] (Abcam, Cambridge, UK), anti-CHGA [C-20] (Santa Cruz Biotechnology, Heidelberg, Germany), and anti-ACTB [A5316] (Sigma-Aldrich). Densitometric analysis of protein bands was performed using ImageQuant TL (GE Healthcare, Chicago, IL, USA).

[4] = test system: MTT tumors; test: Tumor growth of MTT allografts; format: in vivo, mouse; settings: PET cohorts; for Vtumor, ET start: day 0 baseline, mean ± SEM; for Vtumor, ET start + 4 d: day 4, mean ± SEM
Description: During anesthesia, animals were continuously warmed at 37°C. […] Animals were sacrificed using CO2 inhalation and cervical dislocation. […]
70 1.1 Preparation of epigenetic drugs
71 For in vitro application, VPA was freshly dissolved in cell culture medium and added to the
72 cells at final concentrations between 10‒5 and 10‒2 mol/L. DAC was dissolved in H2O to obtain
73 a 10‒4 mol/L stock solution that was stored at ‒20 °C. For each experiment, aliquots of the DAC
74 stock were thawed and added to the cells at final concentrations between 10‒8 and 10‒5 mol/L.
75 For in vivo application, VPA was dissolved at 0.26 mol/L in Dulbecco’s phosphate-buffered
76 saline. DAC was dissolved at 0.04 mol/L in acetic acid (9.6 mol/L) to obtain a stock solution
77 that was further diluted to 6.6×10‒4 mol/L in Dulbecco’s phosphate buffered. […]
88 1.3 Tumor volumes in animal cohorts
89 Animals with higher initial tumor volume were specifically included in cohorts that received
90 epigenetic drugs in order to compensate for the growth-reducing effects of ET and to match
91 tumor volumes as closely as possible across cohorts at the time of radiopharmaceutical injection

[5] = intraperitoneal doses applied; cited from earlier work
From the text: The estimated human equivalent doses corresponded to 20‒30% of the clinically applied tumor-suppressive doses in patients, [45]. Lower doses were used, since we focused on the epigenetic modulation effects rather than the cytotoxic effects of VPA and DAC.

[6] = [64Cu]Cu-DOTA-TATE, 40‒60 min p.i., day 1 after final ET, control or VPA 250 mg/kg, DAC 1 mg/kg days −3 and 0, mean ± SEM, DAC P < 0.05, VPA+DAC P < 0.001
[7] = as SUVmean, mean ± SEM, DAC P < 0.05
[8] = as SUVmean, mean ± SEM, VPA+DAC P < 0.01

T1 sequence (P30875 whole entry): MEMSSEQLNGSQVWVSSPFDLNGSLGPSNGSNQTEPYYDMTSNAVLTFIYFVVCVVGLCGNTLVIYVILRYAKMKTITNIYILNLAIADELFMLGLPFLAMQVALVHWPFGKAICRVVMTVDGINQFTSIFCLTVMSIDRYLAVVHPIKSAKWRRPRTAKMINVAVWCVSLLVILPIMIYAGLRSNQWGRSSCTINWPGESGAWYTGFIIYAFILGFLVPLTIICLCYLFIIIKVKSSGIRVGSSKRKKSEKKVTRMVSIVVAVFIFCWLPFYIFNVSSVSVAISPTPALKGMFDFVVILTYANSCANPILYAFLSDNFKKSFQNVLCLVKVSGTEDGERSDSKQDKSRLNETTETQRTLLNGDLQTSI

Row | Structure (SMILES) | increase of average SUVmean of tumors vs control cohort [2] | SUVmean tumor [2, 6] | SUVmax ratio tumor / muscle ([2]; animal 1, 40‒60 min p.i.) | SUVmax tumor ([2]; animal 1, 40‒60 min p.i.) | SUVmean ratio tumor / muscle ([2]; animal 1, 40‒60 min p.i.) | SUVmean tumor ([2]; animal 1, 40‒60 min p.i.) | SUVmax ratio tumor / muscle ([2]; animal 2, 40‒60 min p.i.) | SUVmax tumor ([2]; animal 2, 40‒60 min p.i.) | SUVmean ratio tumor / muscle ([2]; animal 2, 40‒60 min p.i.) | SUVmean tumor ([2]; animal 2, 40‒60 min p.i.) | SUVmax ratio tumor / muscle ([2]; animal 3, 40‒60 min p.i.) | SUVmax tumor ([2]; animal 3, 40‒60 min p.i.) | SUVmean ratio tumor / muscle ([2]; animal 3, 40‒60 min p.i.) | SUVmean tumor ([2]; animal 3, 40‒60 min p.i.) | SUVmax ratio tumor / muscle ([2]; animal 4, 40‒60 min p.i.) | SUVmax tumor ([2]; animal 4, 40‒60 min p.i.) | SUVmean ratio tumor / muscle ([2]; animal 4, 40‒60 min p.i.) | SUVmean tumor ([2]; animal 4, 40‒60 min p.i.) | SUVmax ratio tumor / muscle ([2]; animal 5, 40‒60 min p.i.) | SUVmax tumor ([2]; animal 5, 40‒60 min p.i.) | also measured
1 | Nc1ncn([C@H]2C[C@H](O)[C@@H](CO)O2)c(=O)n1 [DAC, 5-Aza-2'-deoxycytidine] | 1.7 fold | 0.88 ± 0.13 | 4.01 | 0.83 | 4.91 | 0.38 | 6.62 | 1.52 | 7.82 | 0.65 | 5.31 | 1.66 | 8.27 | 0.77 | 11.0 | 2.00 | 12.6 | 0.80 | 7.68 | 1.88 | increase in [68Ga]Ga-DOTA-TATE uptake [1]: approximately 2 fold; SUVmean ratio tumor / muscle ([2]; animal 5, 40‒60 min p.i.): 11.5; SUVmean tumor ([2]; animal 5, 40‒60 min p.i.): 0.93; SUVmax ratio tumor / muscle ([2]; animal 6, 40‒60 min p.i.): 14.7; SUVmax tumor ([2]; animal 6, 40‒60 min p.i.): 2.71; SUVmean ratio tumor / muscle ([2]; animal 6, 40‒60 min p.i.): 17.9; SUVmean tumor ([2]; animal 6, 40‒60 min p.i.): 1.24; SUVmax ratio tumor / muscle ([2]; animal 7, 40‒60 min p.i.): 18.9; SUVmax tumor ([2]; animal 7, 40‒60 min p.i.): 2.72; SUVmean ratio tumor / muscle ([2]; animal 7, 40‒60 min p.i.): 21.3; SUVmean tumor ([2]; animal 7, 40‒60 min p.i.): 1.37; SUVmax ratio tumor / muscle ([2]; as SUVmean, mean ± SEM): 9.74 ± 2.05; SUVmean ratio tumor / muscle [2, 7]: 12.1 ± 2.2; SUVmax tumor [2, 8]: 1.90 ± 0.25; percentage of MTT responders (SUV) [2]: 57%; induction of SSTR2 protein levels and radiotracer uptake, comparison ([3]; MPC and MTT models): more effectively compared to VPA; SSTR2 up-regulation compared to controls (SSTR2/ACTB) ([3]; MPC cells, DAC 10^-6 mol/L, final ET + 2 d): 5.3 fold; Vtumor, ET start [4]: 0.23 ± 0.07 cm3; Vtumor, ET start + 4 d [4]: 0.24 ± 0.06 cm3
2 | CCCC(CCC)C(=O)O [VPA, valproic acid] | 1.4 fold | 0.73 ± 0.08 | 3.3 | 0.69 | 3.20 | 0.34 | 4.72 | 1.41 | 10.52 | 0.70 | 8.25 | 1.61 | 7.63 | 0.71 | 10.8 | 1.60 | 11.4 | 0.73 | 5.31 | 1.62 | SUVmean ratio tumor / muscle ([2]; animal 5, 40‒60 min p.i.): 7.80; SUVmean tumor ([2]; animal 5, 40‒60 min p.i.): 0.74; SUVmax ratio tumor / muscle ([2]; animal 6, 40‒60 min p.i.): 5.70; SUVmax tumor ([2]; animal 6, 40‒60 min p.i.): 1.73; SUVmean ratio tumor / muscle ([2]; animal 6, 40‒60 min p.i.): 9.73; SUVmean tumor ([2]; animal 6, 40‒60 min p.i.): 0.86; SUVmax ratio tumor / muscle ([2]; animal 7, 40‒60 min p.i.): 6.06; SUVmax tumor ([2]; animal 7, 40‒60 min p.i.): 2.23; SUVmean ratio tumor / muscle ([2]; animal 7, 40‒60 min p.i.): 9.95; SUVmean tumor ([2]; animal 7, 40‒60 min p.i.): 1.06; SUVmax ratio tumor / muscle ([2]; as SUVmean, mean ± SEM): 6.30 ± 0.94; SUVmean ratio tumor / muscle [2, 7]: 8.60 ± 1.04; SUVmax tumor [2, 8]: 1.55 ± 0.17; percentage of MTT responders (SUV) [2]: 29%; Vtumor, ET start [4]: 0.14 ± 0.05 cm3; Vtumor, ET start + 4 d [4]: 0.35 ± 0.05 cm3; time for serum levels to normalize (VPA) [5]: eight
